The source of these data is patent EP0341735A1, “N-acetyl-3-fluoroneuraminic acid as antiviral drug” (priority 1988, dated 1989).

The structures appear in SMILES notation.

The subject of data set [1] is sialidase produced by Streptococcus sp. As to the kind of experiment: Sialidase inhibition, 4-MU-NeuAc fluorescence assay. Format: biochemical. The conditions noted are these: same procedure as Example 1. The protocol: (§1) 100 µ ℓ of a 0.5 mM solution of 4-methylumbelliferyl-N-acetylneuraminic acid (4-MU-NeuAc) (a product of Nakarai Kagaku Co., Ltd) of the following formula: [drawing 15]
(§2) 100 µ ℓ of a 200 mM sodium acetate buffer (pH 4.2) and 100 µ ℓ of N-acetyl-3-fluoroneuraminic acid (compound 1) 4 to 400 µM were added to an enzyme solution ([…]) (10 mU/ml) of sialidase (a product of Nakarai Kagaku Co., Ltd.) product from Arthrobacter ureafaciens in a test tube, and the reaction was conducted in a water bath at 37 °C for 15 min. Then, 3.6 ml of a 200 mM glycine/NaOH buffer (pH 10.4) was added to the reaction mixture in the test tube to terminate the reaction. the concentration of 4-methylumbelliferone formed in the reaction solution was determined from its fluorescence intensity at an excitation wave length of 360 nm and an emission wave length of 440 nm with a fluorescence spectrophotometer (a product of Hitachi, Ltd.). The amount of free sialic acid was determined from this value.
(§3) The sialidase inhibition rate was determined according to the following formula: [formula]
(§4) The same procedure as that of Example 1 was repeated except that sialidases produced by Vibrio colerae and Streptococcus sp. were used, and then the inhibition rate of Compound 1 was determined.

Data set [2] addresses sialidase produced by Vibrio colerae (Vibrio cholerae serotype O1, UniProt P0C6E9). Described as above. The format is biochemical. The conditions noted are these: same procedure as Example 1. As to the method:
as §1, §2, §3, §4

For a further data set, the system named is Female ICR mice. As to the kind of experiment: Acute toxicity test by intravenous injection. The conditions noted are these: for Number of deaths: Intravenous injection, 10 mice per level, observation period 14 days. The format is in vivo. The protocol:
The acute toxicity test of Compound 1 was conducted by an intravenous injection in female mice.
Animals used: Female ICR mice (6 week old) Medicine concentration: 13 to 15 W/V % in distilled water Number of mice for each level: 10 Observation period: 14 days.

In data set [3] the test system is sialidase produced by Arthrobacter ureaffacients. As to the kind of experiment: Sialidase inhibition, 4-MU-NeuAc fluorescence assay. The format is biochemical, Arthrobacter ureafaciens. The conditions noted are these: for Inhibition rate / NeuAc released: substrate 4-MU-NeuAc, pH 4.2, 37 °C, 15 min. The protocol:
as §1, §2, §3

sialidase produced by Vibrio colerae, sequence (P0C6E9 25-781): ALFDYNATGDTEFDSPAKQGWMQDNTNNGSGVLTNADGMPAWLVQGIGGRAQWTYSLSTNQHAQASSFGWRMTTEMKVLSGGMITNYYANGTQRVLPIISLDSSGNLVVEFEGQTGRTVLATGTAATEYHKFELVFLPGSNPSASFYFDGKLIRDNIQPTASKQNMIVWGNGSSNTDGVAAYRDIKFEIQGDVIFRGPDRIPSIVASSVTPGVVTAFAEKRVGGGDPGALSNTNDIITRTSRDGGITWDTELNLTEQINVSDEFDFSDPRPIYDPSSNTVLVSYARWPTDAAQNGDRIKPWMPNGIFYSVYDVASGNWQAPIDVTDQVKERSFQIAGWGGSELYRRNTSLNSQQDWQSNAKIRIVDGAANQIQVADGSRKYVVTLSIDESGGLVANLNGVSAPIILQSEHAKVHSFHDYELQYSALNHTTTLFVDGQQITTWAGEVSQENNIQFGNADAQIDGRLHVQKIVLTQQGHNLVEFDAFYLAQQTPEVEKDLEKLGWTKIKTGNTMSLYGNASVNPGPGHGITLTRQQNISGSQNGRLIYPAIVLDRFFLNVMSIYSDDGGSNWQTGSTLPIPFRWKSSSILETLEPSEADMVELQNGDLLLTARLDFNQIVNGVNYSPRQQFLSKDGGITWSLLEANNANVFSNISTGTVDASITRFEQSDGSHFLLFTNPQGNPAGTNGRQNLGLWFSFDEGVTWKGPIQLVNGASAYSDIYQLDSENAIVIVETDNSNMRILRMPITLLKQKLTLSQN

A word on the inhibition: it is the relative decrease from the control value, in per cent. Regarding `CC(=O)N[C@H]1[C@H]([C@H](O)[C@H](O)CO)OC(O)(C(=O)O)C(F)[C@@H]1O` (stereo partly drawn) [Compound 1, N-acetyl-3-fluoroneuraminic acid], the Inhibition rate in data set [1] (Compound 1 at 0.001 mM) is reported as 7.4%; in data set [1] (Compound 1 at 0.01 mM), 24.6%; in data set [1] (Compound 1 at 0.1 mM), 75.4%; in data set [3] (Compound 1 at 0.001 mM), 14.3%; in data set [3] (Compound 1 at 0.01 mM), 48.9%; in data set [3] (Compound 1 at 0.1 mM), 82.0%. In addition, the NeuAc released amounted to 10.5 n mol in data set [1] (Compound 1 at 0.001 mM); 8.5 n mol in data set [1] (Compound 1 at 0.01 mM); 2.8 n mol in data set [1] (Compound 1 at 0.1 mM); 5.9 n mol in data set [2] (Compound 1 at 0.001 mM); 5.3 n mol in data set [2] (Compound 1 at 0.01 mM); 2.8 n mol in data set [2] (Compound 1 at 0.1 mM). Moreover, the NeuAc released is reported as 23.0 n mol in data set [3] (Compound 1 at 0.001 mM), 14.0 n mol in data set [3] (Compound 1 at 0.01 mM) and 4.9 n mol in data set [3] (Compound 1 at 0.1 mM). Moreover, the inhibition at 1 µM in data set [2] (Compound 1 at 0.001 mM, read-out: Inhibition rate) is -0.2%. Also, in data set [2] (Compound 1 at 0.01 mM, read-out: Inhibition rate), the inhibition at 10 µM is 8.4%. Further, the inhibition at 100 µM in data set [2] (Compound 1 at 0.1 mM, read-out: Inhibition rate) was found to be 52.7%. For the same molecule, the Number of deaths in the data set with Female ICR mice (dose 200 mg), in the data set with Female ICR mice (dose 400 mg) and with Female ICR mice (dose 600 mg) was 0 each time. Moreover, the “toxicity (in words)” value in the data set on Female ICR mice (conclusion from Table 4) is on record as “quite low”. Besides, in data set [3] (Fig. 1, two different substrate concentrations), the “inhibition pattern (Dixon plot)” value is “competitive with the substrate”. For the same molecule, the “activity of sialidase (inhibition, in words)” value in data set [3] (conclusion from Table 1) is “remarkably inhibits”.
